Measurements published in patent publication US12570602B2, “Selective serotonin receptor modulators and methods of making and using the same” (Park City Bio, LLC, priority 2024, dated 2026).

How the values were obtained:
5-HT2C receptor = molecular target: T1, 5-HT2C receptor (Homo sapiens, UniProt P28335); experiment: Gq activation via Gq/γ1 dissociation BRET, 5-HT2C; assay type: cell-based; details: primary signaling for 5-HT2C via Gq-coupled mechanism compared to B-arrestin
T1 construct: expressed in transfected cells; host or cells: HEK293T
T1 sequence (P28335 33-458): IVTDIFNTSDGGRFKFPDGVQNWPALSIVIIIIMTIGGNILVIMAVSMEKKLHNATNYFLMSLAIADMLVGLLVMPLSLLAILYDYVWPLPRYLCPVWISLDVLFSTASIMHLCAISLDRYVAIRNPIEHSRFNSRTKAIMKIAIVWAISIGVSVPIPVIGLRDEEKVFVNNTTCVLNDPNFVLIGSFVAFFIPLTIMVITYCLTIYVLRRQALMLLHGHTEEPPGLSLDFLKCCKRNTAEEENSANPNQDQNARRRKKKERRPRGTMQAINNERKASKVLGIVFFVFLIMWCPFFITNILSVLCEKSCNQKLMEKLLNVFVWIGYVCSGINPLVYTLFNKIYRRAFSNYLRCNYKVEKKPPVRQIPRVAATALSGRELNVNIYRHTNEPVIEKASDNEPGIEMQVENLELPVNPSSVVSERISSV
Description: (§1) To measure 5-HT2 receptor-mediated Gq activation via Gq/y1 dissociation as measured by Bioluminescence Resonance Energy Transfer (BRET) (McCorvy J D, Wacker D, Wang S, Agegnehu B, Liu J, Lansu K, Tribo A R, Olsen R H J, Che T, Jin J, Roth B L. Structural determinants of 5-HT2B receptor activation and biased agonism. Nat Struct Mol Biol. 2018; 25(9): 787-96), HEK293T cells were sub-cultured in Dulbecco's Modified Eagle Medium (DMEM) supplemented with 10% dialyzed fetal bovine serum (FBS) and were co-transfected in a 1:1:1:1 ratio with Rluc8-fused human Gaq (Gaq-Rluc8), a GFP2-fused to the C-terminus of human Gy1 (Gy1-GFP2), human GI31, and 5-HT2 receptor using TransiT-2020. After at least 18-24 hours, transfected cells were plated in poly-lysine coated 96-well white clear bottom cell culture plates in DMEM containing 1% dialyzed FBS at a density of 25,000-40,000 cells in 200 μL per well and incubated overnight. The following day, medium was decanted, and cells were washed with 60 μL of drug buffer (1×HBSS, 20 mM HEPES, pH 7.4), then 60 μL of drug buffer was added per well. Cells were pre-incubated at in a humidified atmosphere at 37° C. before receiving drug stimulation. […] Substrate addition occurred 15 minutes before reading and utilized 10 μL of the Rluc substrate coelenterazine 400a for Gq dissociation BRET^2 (Prolume/Nanolight, 5 μM final concentration). Plates were read for luminescence at 400 nm and fluorescent GFP2 emission at 510 nm at 1 second per well using a Mithras LB940 multimode microplate reader (e.g. one provided by Berthold). The BRET ratios of fluorescence/luminescence were calculated per well and were plotted as a function of drug concentration using Graphpad Prism 8 (Graphpad Software Inc., San Diego, CA). Data were normalized to % 5-HT stimulation and analyzed using nonlinear regression “log(agonist) vs. response” to yield Emax and EC50 parameter estimates. […]

5-HT2A receptor = molecular target: T2, 5-HT2A receptor (Homo sapiens, UniProt P28223); experiment: Gq activation via Gq/γ1 dissociation BRET, 5-HT2A; assay type: cell-based; details: hallucinogenic or non-hallucinogenic plastogenic effect predicted from level of 5-HT2A agonist efficacy
T2 construct: expressed in transfected cells; host or cells: HEK293T
T2 sequence (P28223 whole entry): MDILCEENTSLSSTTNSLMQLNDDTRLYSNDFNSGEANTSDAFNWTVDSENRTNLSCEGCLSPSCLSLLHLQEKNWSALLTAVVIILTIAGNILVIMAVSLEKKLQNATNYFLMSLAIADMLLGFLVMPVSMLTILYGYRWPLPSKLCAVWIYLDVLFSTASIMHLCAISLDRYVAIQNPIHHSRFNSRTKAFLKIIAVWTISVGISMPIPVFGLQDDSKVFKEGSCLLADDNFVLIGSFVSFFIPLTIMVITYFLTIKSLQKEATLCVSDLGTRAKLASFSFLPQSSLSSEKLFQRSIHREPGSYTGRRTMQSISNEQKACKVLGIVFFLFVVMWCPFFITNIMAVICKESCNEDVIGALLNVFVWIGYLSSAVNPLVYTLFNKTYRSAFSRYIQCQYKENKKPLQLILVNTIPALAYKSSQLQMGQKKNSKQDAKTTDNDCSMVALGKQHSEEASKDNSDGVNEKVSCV
Description: as §1

Structure (SMILES) | 5-HT2C Gq signaling bias? (5-HT2C receptor) | Hall or N-Hall? (5-HT2A receptor)
CNC[C@H]1C[C@@H]1c1cc(F)ccc1OC | Yes | N-Hall
CNCC1CC1c1cc(F)ccc1SC (stereo not drawn) | Yes | N-Hall
CSc1ccc(F)cc1C1CC1CN(C)C (stereo not drawn) | Yes | N-Hall
